In ChEMBL document CHEMBL1201862, “PubChem BioAssay data set” (2004) one finds IC50, EC50 and AC50 data, which are given here for seven compounds.

The target in experiment [1] is Nucleotide-binding oligomerization domain-containing protein 1 (Homo sapiens, UniProt Q9Y239). The experiment in a line: blockers of NOD1 pathway activity – revised, SAR follow-up (AID 2333). Format: functional.
The target of the next experiment is Tumor necrosis factor (Homo sapiens, UniProt P01375). The experiment in a line: analog potency on TNFa NF-kB signaling – cell-based, revised, SAR follow-up (AID 2337). Format: functional.
The subject of experiment [2] is HEK293. The experiment in a line: NOD2 signaling inhibitors in MDP-stimulated cells, cell-based, uHTS, luminescence (AID 2001). Format: functional. Conditions: Homo sapiens.
Experiment [3] addresses Nucleotide-binding oligomerization domain-containing protein 2 (Homo sapiens, UniProt Q9HC29). Nature of the experiment: PubChem AID 2334. Format: functional.
Experiment [4] concerns HEK293. The experiment in a line: cells. Format: functional, cell-based. Conditions: Homo sapiens.
Experiment [5] in a line: viability of PTEN-deleted HCT116 cells – cell-based, HCT116 PTEN knockout, dose response (AID 1047).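 Also: HCT116 colon tumor cells with PTEN knocked out; cells exposed to compound for 60 hours before readout; potency for loss of cell viability measured by luminescence.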 Format: functional.
Experiment [6] deals with HEK293. The experiment in a line: cells. The note with it: Homo sapiens.
Experiment [7] has as its system HEK293. The experiment in a line: cells. Format: functional, cell-based. The note with it: Homo sapiens. The source holds these as a separate data set.
A short description of experiment [8]: viability of HCT116 lacking mutant beta-catenin – cell-based, human colon tumor, dose response (AID 1045).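 Also: HCT116 colon tumor cells with beta catenin knocked out; cells exposed to compound for 60 hours.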 Format: functional.
In experiment [9] the test system is HEK293. Nature of the experiment: inhibition of NOD1-driven NF-kB reporter – cell-based, luminescence, uHTS, primary screen (AID 1578). Format: functional. The note with it: Homo sapiens.
Experiment [10] has as its target T1, G-protein coupled receptor 55 (Homo sapiens, UniProt Q9Y2T6). Nature of the experiment: blockers of GPR55 signalling, imaged – imaging, image-based, counter-screen for GPR35 antagonist project, SAR follow-up (AID 2397). Format: functional. (A counterscreen serves to expose hits that act by an unwanted route or on another target.)
The target of experiment [11] is T2, Tyrosine-protein phosphatase non-receptor type 7 (Homo sapiens, UniProt P35236).
T2 sequence (P35236 whole entry): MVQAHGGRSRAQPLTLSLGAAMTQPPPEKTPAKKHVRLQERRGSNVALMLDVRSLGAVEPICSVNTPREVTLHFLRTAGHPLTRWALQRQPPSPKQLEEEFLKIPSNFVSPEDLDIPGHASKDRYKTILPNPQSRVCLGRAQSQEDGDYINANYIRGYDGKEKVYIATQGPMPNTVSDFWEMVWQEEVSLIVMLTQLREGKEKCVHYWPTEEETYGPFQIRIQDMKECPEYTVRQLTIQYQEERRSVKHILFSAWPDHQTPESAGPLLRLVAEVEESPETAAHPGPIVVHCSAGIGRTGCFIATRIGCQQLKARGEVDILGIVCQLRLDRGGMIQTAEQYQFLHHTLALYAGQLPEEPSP
Format: functional.

Experiment [12] concerns the target T3, Tyrosine-protein phosphatase non-receptor type 22 (Homo sapiens, UniProt Q9Y2R2).
T3 sequence (Q9Y2R2 whole entry): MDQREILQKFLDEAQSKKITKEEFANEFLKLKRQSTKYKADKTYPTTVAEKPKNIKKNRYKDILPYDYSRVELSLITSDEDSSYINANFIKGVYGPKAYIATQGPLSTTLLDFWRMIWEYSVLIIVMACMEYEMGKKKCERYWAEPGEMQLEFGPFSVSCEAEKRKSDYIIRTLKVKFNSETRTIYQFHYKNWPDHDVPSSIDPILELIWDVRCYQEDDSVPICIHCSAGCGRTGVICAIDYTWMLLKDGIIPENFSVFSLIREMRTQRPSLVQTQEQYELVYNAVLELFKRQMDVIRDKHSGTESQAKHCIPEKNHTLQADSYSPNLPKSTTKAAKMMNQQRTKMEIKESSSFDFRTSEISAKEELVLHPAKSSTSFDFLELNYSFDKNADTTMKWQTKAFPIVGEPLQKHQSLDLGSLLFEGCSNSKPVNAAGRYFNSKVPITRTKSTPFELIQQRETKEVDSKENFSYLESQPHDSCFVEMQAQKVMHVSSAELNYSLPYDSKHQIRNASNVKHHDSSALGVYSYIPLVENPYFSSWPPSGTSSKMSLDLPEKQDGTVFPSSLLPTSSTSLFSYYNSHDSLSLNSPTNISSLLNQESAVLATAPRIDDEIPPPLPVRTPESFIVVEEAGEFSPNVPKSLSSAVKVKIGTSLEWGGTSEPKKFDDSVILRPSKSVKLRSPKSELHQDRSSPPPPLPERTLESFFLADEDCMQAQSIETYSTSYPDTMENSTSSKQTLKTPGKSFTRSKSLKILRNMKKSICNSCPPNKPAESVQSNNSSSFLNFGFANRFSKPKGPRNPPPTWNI
Format: functional.

In experiment [13] the target is T3, Tyrosine-protein phosphatase non-receptor type 22. Format: functional. This is another data set of the same source.
In experiment [14] the target is T4, Cannabinoid receptor 1 (Homo sapiens, UniProt P21554). The experiment in a line: SAR analysis of agonists of the Cannabinoid Receptor 1 using an Image-Based Assay - Set 2. [Related pubchem assays (depositor defined):AID2013, AID2026]. Format: functional.
The target of experiment [15] is T5, Cannabinoid receptor 2 (Homo sapiens, UniProt P34972). The experiment in a line: SAR analysis of antagonists of the Cannabinoid Receptor 2 using an Image-Based Assay. [Related pubchem assays (depositor defined):AID2013, AID2026]. Format: functional.
For experiment [16], the target named is T6, G-protein coupled receptor 35 (Homo sapiens, UniProt Q9HC97). The experiment in a line: SAR analysis of Antagonists of the GPR35 Receptor using an Image-Based Assay - Set 3. [Related pubchem assays (depositor defined):AID2013, AID2026]. Format: functional.
For experiment [17], the target named is T6, G-protein coupled receptor 35. The experiment in a line: SAR analysis of Agonists of the GPR35 Receptor using an Image-Based Assay - Set 2. [Related pubchem assays (depositor defined):AID2013, AID2026]. Format: functional.
Experiment [18] concerns the target T1, G-protein coupled receptor 55. Nature of the experiment: blockade of LPI-induced GPR55 arrestin translocation – imaging, U2OS, beta-arrestin-GFP, LPI agonist, set 2, SAR follow-up (AID 2820). Format: functional.
For experiment [19] the target is unchanged. Nature of the experiment: inhibition of LPI-stimulated GPR55 beta-arrestin translocation – imaging, U2OS, beta-arrestin-GFP, LPI agonist, primary screen (AID 2013).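 Also: antagonist potency measured as reduced agonist-driven arrestin aggregation.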 Format: functional.
Experiment [20] concerns the target T5, Cannabinoid receptor 2. The experiment in a line: SAR analysis of agonists of the Cannabinoid Receptor 2 using an Image-Based Assay. [Related pubchem assays (depositor defined):AID2013, AID2026]. Format: functional.
In experiment [21] the target is T4, Cannabinoid receptor 1. Nature of the experiment: SAR analysis of antagonists of the Cannabinoid Receptor 1 using an Image-Based Assay - Set 2. [Related pubchem assays (depositor defined):AID2013, AID2026]. Format: functional.
Experiment [22] concerns the target Lysine-specific demethylase 4C (Homo sapiens, UniProt Q9H3R0). Nature of the experiment: inhibition of JMJD2C H3K9me3 demethylation – biochemical, DELFIA europium, cherry-picked samples, dose response (AID 488835). Format: functional.
Experiment [23] has as its target T7, Kappa-type opioid receptor (Homo sapiens, UniProt P41145). Nature of the experiment: kappa opioid receptor activation potency – imaging, image-based, SAR follow-up (AID 2359). Format: functional.
For experiment [24], the target named is T8, Delta-type opioid receptor (Homo sapiens, UniProt P41143). The experiment in a line: DOR agonists, SAR follow-up, image-based (AID 2370). Format: functional.
The target of experiment [25] is T9, Mu-type opioid receptor (Homo sapiens, UniProt P35372). The experiment in a line: mu opioid receptor activators, image-based, SAR follow-up (AID 2352). Format: functional.
Experiment [26] deals with T8, Delta-type opioid receptor. The experiment in a line: delta opioid receptor blockers – image-based, SAR follow-up (AID 2357). Format: functional.
For experiment [27], the target named is T9, Mu-type opioid receptor. Nature of the experiment: mu opioid receptor blockers – image-based, SAR follow-up (AID 2420).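 Also: compounds added before stimulation of receptor with agonist DAMGO.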 Format: functional.
Experiment [28] deals with T7, Kappa-type opioid receptor. The experiment in a line: kappa opioid receptor blockers, cell-based, luminescence, beta-arrestin, SAR follow-up (AID 2285). Format: functional.
Experiment [29] addresses T7, Kappa-type opioid receptor. Nature of the experiment: kappa opioid receptor blockers, image-based, SAR follow-up (AID 2348). Format: functional.
Experiment [30] addresses Intestinal-type alkaline phosphatase (Mus musculus, UniProt P24822). The experiment in a line: PubChem AID 488785. Format: functional.
The target of experiment [31] is Intestinal-type alkaline phosphatase (Homo sapiens, UniProt P09923). The experiment in a line: inhibition of human intestinal alkaline phosphatase – biochemical, dose response (AID 488876). Format: functional.
Experiment [32] addresses T10, Alkaline phosphatase, tissue-nonspecific isozyme (Homo sapiens, UniProt P05186).
T10 sequence (P05186 whole entry): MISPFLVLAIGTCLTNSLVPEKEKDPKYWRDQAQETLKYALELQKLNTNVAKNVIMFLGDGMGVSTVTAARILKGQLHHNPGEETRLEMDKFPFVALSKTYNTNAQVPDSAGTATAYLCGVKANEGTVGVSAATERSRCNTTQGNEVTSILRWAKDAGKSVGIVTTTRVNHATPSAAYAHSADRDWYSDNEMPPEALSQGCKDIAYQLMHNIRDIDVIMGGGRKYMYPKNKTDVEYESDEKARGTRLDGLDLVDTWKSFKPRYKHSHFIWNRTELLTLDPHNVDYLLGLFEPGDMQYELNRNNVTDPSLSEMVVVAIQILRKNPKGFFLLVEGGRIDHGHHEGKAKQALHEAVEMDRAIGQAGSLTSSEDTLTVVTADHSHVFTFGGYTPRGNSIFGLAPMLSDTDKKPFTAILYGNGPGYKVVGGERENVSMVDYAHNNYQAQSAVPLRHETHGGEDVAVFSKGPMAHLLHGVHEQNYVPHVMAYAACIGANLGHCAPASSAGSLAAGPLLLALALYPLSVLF
Nature of the experiment: TNAP enzyme inhibition by screening hits, dose response, selectivity assay for mouse IAP inhibitor project, biochemical, human TNAP, uHTS hits (AID 488906). Format: functional.

Active and inactive are the calls of the source.

What is called IC50 is the concentration that gives 50% inhibition. For orientation: EC50 means the concentration that produces a half-maximal response. In general, AC50 refers to the midpoint of the concentration-response curve, whichever way the signal moves.

T7 sequence (P41145 whole entry): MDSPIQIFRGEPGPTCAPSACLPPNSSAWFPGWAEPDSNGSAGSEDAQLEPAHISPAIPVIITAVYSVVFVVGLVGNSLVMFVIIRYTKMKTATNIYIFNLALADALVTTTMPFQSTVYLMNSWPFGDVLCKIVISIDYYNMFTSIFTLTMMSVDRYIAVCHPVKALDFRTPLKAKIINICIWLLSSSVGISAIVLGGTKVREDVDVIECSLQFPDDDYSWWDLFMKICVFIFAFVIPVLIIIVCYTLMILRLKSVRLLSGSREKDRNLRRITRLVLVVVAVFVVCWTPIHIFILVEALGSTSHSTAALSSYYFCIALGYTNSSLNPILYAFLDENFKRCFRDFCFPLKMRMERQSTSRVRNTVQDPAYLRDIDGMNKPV
T1 sequence (Q9Y2T6 whole entry): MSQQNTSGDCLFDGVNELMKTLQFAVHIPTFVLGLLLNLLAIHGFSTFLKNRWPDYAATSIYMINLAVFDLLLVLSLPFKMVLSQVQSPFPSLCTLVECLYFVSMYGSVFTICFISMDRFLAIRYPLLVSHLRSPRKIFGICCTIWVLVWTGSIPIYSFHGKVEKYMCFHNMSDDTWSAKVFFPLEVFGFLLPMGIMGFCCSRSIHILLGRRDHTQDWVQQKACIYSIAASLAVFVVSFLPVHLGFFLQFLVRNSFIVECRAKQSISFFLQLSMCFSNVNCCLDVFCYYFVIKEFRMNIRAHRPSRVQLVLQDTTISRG
T9 sequence (P35372 whole entry): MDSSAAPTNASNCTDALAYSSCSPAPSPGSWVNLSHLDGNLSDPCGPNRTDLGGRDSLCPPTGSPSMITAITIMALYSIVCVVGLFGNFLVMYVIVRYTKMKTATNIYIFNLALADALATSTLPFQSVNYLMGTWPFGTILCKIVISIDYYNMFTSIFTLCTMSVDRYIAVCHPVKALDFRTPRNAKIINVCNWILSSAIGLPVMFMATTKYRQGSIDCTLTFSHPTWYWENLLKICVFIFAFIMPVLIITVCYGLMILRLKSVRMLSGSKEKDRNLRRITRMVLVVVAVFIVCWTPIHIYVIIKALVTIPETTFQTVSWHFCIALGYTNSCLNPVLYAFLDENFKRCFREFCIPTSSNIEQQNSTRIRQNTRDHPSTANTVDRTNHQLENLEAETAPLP
T5 sequence (P34972 whole entry): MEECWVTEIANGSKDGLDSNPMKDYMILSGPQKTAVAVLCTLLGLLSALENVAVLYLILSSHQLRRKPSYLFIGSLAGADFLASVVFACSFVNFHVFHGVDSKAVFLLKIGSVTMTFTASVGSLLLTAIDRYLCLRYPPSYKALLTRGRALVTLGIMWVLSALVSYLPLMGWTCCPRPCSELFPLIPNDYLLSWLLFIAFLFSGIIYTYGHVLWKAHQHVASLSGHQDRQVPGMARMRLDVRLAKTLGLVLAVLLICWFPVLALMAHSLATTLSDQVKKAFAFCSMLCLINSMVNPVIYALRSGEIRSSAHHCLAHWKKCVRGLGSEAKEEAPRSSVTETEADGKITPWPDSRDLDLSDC
T4 sequence (P21554 whole entry): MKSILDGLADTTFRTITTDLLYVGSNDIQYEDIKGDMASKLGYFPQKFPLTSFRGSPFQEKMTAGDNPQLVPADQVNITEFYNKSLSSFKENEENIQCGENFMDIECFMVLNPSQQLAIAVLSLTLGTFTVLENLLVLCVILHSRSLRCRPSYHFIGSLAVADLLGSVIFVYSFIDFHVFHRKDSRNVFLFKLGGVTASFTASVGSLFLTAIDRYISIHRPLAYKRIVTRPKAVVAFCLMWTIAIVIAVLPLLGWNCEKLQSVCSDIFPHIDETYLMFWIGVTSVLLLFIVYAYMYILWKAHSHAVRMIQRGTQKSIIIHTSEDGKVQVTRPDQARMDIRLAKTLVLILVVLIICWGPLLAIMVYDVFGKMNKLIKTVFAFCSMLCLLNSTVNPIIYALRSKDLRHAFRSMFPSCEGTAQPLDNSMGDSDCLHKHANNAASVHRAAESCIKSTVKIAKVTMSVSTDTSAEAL
T8 sequence (P41143 whole entry): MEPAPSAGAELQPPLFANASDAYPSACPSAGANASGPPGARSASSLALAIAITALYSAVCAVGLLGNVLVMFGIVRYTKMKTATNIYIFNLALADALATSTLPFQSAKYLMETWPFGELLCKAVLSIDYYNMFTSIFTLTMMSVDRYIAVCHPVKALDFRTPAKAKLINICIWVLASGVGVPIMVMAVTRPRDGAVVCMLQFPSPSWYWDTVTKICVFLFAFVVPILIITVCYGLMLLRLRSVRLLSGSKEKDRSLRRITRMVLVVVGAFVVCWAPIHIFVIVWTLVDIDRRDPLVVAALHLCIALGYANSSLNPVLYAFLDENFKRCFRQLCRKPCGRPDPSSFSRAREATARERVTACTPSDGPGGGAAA
T6 sequence (Q9HC97 whole entry): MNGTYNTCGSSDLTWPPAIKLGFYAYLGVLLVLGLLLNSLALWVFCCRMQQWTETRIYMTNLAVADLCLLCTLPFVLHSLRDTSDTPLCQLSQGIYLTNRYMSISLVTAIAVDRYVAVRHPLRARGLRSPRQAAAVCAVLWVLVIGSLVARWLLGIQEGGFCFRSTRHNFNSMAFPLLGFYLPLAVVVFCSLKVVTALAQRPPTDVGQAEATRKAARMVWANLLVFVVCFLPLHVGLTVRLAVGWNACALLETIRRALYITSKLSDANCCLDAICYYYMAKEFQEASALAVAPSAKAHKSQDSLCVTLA
Sequence of Intestinal-type alkaline phosphatase (Homo sapiens, UniProt P09923) (P09923 whole entry): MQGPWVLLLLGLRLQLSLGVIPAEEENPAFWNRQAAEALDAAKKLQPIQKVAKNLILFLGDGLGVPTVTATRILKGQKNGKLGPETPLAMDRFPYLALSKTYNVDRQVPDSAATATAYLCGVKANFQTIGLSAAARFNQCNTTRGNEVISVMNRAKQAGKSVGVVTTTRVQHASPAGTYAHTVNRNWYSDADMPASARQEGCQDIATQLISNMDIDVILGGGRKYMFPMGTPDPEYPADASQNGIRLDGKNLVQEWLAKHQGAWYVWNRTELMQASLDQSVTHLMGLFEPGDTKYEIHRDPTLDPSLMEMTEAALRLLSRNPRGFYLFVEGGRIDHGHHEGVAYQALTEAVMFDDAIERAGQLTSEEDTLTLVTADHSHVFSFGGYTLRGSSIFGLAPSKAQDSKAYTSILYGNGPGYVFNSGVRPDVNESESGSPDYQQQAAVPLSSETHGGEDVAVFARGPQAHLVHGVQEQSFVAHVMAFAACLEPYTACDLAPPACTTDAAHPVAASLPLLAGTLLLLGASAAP
Sequence of Nucleotide-binding oligomerization domain-containing protein 2 (Q9HC29 whole entry, the tested form may be a part): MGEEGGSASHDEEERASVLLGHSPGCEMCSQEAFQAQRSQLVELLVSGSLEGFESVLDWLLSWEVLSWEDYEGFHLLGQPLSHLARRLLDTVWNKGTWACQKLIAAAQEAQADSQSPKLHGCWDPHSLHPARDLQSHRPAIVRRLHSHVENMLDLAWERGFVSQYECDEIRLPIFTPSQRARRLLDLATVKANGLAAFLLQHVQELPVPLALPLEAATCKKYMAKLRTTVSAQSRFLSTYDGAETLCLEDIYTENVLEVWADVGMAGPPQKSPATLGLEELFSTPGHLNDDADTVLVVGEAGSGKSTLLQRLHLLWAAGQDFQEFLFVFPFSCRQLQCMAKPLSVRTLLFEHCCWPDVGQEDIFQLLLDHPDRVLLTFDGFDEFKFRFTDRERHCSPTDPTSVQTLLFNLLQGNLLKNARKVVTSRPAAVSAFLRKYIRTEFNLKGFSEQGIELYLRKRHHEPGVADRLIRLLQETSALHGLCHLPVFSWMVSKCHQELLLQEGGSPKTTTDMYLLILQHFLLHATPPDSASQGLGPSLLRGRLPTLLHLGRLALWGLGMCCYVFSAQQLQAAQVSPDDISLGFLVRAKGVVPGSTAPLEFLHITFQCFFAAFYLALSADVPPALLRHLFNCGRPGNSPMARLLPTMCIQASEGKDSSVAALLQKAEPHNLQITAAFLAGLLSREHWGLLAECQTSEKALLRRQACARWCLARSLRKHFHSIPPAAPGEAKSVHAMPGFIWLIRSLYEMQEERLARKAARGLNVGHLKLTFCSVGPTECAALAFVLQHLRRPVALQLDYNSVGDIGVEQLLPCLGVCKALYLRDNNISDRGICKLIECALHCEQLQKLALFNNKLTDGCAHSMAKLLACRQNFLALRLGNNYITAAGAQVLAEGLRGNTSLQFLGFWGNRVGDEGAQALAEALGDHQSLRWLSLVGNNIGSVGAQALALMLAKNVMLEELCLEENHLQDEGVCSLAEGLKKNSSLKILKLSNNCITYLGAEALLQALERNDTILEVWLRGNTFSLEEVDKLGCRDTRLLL
Sequence of Tumor necrosis factor (P01375 whole entry): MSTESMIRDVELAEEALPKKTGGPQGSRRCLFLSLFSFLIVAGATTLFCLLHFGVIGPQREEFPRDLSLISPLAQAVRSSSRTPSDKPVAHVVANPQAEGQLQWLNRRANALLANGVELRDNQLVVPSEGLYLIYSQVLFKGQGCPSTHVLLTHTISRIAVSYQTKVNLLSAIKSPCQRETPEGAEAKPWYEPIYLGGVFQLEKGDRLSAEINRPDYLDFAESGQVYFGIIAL
Sequence of Intestinal-type alkaline phosphatase (Mus musculus, UniProt P24822) (P24822 whole entry): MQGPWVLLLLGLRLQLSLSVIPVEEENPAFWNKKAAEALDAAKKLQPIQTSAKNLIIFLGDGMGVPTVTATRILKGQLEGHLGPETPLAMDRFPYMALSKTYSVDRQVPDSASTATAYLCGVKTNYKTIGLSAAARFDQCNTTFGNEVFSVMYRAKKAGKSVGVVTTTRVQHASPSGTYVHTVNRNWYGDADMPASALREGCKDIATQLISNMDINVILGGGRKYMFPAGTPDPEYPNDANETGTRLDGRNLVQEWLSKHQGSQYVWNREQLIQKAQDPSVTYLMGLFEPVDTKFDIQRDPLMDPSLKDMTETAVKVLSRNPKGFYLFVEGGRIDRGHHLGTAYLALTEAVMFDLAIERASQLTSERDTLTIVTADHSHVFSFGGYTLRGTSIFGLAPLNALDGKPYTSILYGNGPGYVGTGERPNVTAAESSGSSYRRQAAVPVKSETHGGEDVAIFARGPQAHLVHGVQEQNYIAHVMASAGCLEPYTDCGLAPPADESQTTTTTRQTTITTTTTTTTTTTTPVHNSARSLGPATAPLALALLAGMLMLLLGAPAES

Consider `Cc1cccc(-n2nc3c4c(ccc3c2O)C(=O)c2ccccc2C4=O)c1`, for which the IC50 in [1] was 17.1 µM (active); on Tumor necrosis factor, 16.3 µM (active); in the experiment with HEK293 [2], > 20 µM (inactive); in experiment [3], 17.8 µM (active); in the experiment with HEK293 [4], > 20 µM (inactive); in the experiment with HEK293 [6], > 20 µM (inactive). For the same compound, the IC50 in the experiment on HEK293 [7] is > 20 µM (inactive). Besides, the 50% effective concentration (EC50) in [5] was 114 µM (active); in [8], 30 µM (active); in the experiment on HEK293 [9] it was 8.5 µM (active).

Take `Cc1ccccc1OCCC(=O)NCCc1ccc(S(N)(=O)=O)cc1`: the IC50 in [10] is > 32 µM (inactive).

`Cc1ccccc1Cn1cc(NC(=O)c2nn(C)cc2Cl)cn1`: the IC50 in experiment [11], in experiment [12] and in [13] was > 79.4 µM (inactive) throughout.

For `Cc1n[nH]c(-c2ccc(O)c(C)c2O)c1Oc1ccccc1`, the EC50 (on Cannabinoid receptor 1 [14]; in experiment [17]; at Cannabinoid receptor 2 [20]) was > 32 µM (inactive) each time. The IC50 at Cannabinoid receptor 2 [15] was > 32 µM (inactive); in [16] it was > 32 µM (inactive); in experiment [18], 0.854 µM (active); in experiment [19], 1.9 µM (active); at Cannabinoid receptor 1 [21], 11.7 µM (inactive).

`CC(C)CCN(C(=O)C1=COCCO1)c1c(N)n(Cc2ccccc2)c(=O)[nH]c1=O`: in experiment [22], the AC50 is 20.6 µM (active).

In the case of `COc1ccc(S(=O)(=O)NCc2ccc(C(=O)NCCN(C)Cc3ccccc3)cc2)cc1`, the EC50 (in experiment [23]; in experiment [24]; at Mu-type opioid receptor [25]) was > 32 µM (inactive) in each case. Also, the IC50 in experiment [26] was > 32 µM (inactive); on Mu-type opioid receptor [27] it was > 32 µM (inactive); in experiment [28], > 10 µM (inactive); in [29], 24 µM (inactive).

Regarding `CC(C)(C)c1ccc(O)c(/N=C/c2cc3c(cc2[N+](=O)[O-])OCO3)c1`, the 50% inhibitory concentration (IC50) was 6.39 µM (active) in experiment [30], > 100 µM (inactive) in experiment [31] and > 100 µM (inactive) in [32].
